The text below walks through data of US12247032B2, “Substituted pyrazolo[1,5-a]pyrimidines as inhibitors of JAK kinases” (Genentech, Inc., priority 2019, dated 2025).

Assay [1] concerns the target T1, Recombinant human JAK2 kinase domain protein (Residues 812-1132) (Homo sapiens, UniProt O60674).
T1 construct: human JAK2 kinase domain protein (Residues 812-1132); made in house; host or cells: insect cells
Description: JAK2 biochemical assay (microfluidic mobility shift, peptide phosphorylation). As to conditions: 25 μM ATP, 0.2 nM total JAK2; Ki calculated from Ki app (tight-binding, competitive); read-out: Biochem JAK2 Ki. The method in brief: (§1)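 Insect-cell-expressed human JAK1 (1 nM, residues 854-1154) or JAK2 (0.2 nM, residues 812-1132) phosphorylating 1.5 μM 5-FAM peptide Y-1B with 25 μM ATP, pH 7.2 HEPES, 30 min at 22-23 °C; twelve concentrations up to 1000 nM in duplicate. Mobility-shift % conversion fitted to tight-binding quadratic for Ki^app.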

Assay [2] deals with JAK1 (IL-13-stimulated STAT6 phosphorylation in BEAS-2B cells). Briefly: P-STAT6 BEAS-2B+IL-13 cell assay. The class given is cell-based, human. As to conditions: Homo sapiens, BEAS-2B, 1 h, 1 hour compound, IL-13 15 minutes, IC50 by four-parameter fit, read-out: Cellular JAK1 PSTAT6 BEAS2B + IL13. The method in brief:
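BEAS-2B human bronchial epithelial cells preincubated 1 h at 37 °C with compound, then stimulated with human recombinant IL-13 for 15 min. Phospho-STAT6 (Tyr641) in lysates measured by MSD electrochemiluminescence immunoassay; IC50 from a four-parameter logistic fit of percent of control.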

Assay [3] deals with T2, recombinant human JAK1 kinase domain protein (Residues 854-1154) (Homo sapiens, UniProt P23458).
T2 construct: human JAK1 kinase domain protein (Residues 854-1154); purchased Proteros Biostructures GmbH (Martinsried, Germany); host or cells: insect cells
Description: JAK1 biochemical assay (microfluidic mobility shift, peptide phosphorylation). As to conditions: 25 μM ATP, 1 nM total JAK1; Ki calculated from Ki app (tight-binding, competitive); read-out: Biochem JAK1 Ki. The gist of the method: as §1

T1 sequence (O60674 812-1132): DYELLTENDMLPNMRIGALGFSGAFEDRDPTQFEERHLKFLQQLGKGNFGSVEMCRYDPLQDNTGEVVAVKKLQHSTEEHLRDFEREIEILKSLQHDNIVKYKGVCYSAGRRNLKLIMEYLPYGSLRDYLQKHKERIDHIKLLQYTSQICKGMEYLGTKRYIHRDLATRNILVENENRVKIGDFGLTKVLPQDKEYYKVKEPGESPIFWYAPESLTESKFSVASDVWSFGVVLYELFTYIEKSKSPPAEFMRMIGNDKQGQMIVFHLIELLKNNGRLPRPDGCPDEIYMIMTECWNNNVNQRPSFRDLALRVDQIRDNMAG
T2 sequence (P23458 854-1154): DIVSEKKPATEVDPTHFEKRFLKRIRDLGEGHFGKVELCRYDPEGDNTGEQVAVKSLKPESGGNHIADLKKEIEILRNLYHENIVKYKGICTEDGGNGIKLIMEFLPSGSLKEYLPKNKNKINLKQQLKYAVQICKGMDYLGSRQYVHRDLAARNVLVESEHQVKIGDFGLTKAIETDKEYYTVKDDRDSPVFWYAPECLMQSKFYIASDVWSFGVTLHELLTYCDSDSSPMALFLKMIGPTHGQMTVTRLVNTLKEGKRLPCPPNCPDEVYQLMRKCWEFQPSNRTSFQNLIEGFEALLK

Take `CSc1ccc(OC(F)F)c(-c2nn(Cc3nnn(CCN(C)C)n3)cc2NC(=O)c2cnn3cccnc23)c1` [Example 36, N-[3-[2-(difluoromethoxy)-5-methylsulfanyl-phenyl]-1-[[2-[2-(dimethylamino)ethyl]tetrazol-5-yl]methyl]pyrazol-4-yl]pyrazolo[1,5-a]pyrimidine-3-carboxamide]: the Ki was 0.22 nM in assay [1] and 0.37 nM in assay [3]. The IC50 in assay [2] is 17 nM.
For the compound `CN1CCN(CCn2nnc(Cn3cc(NC(=O)c4cnn5cccnc45)c(-c4cc(Cl)ccc4OC(F)F)n3)n2)CC1` [Example 39, N-[3-[5-chloro-2-(difluoromethoxy)phenyl]-1-[[2-[2-(4-methylpiperazin-1-yl)ethyl]tetrazol-5-yl]methyl]pyrazol-4-yl]pyrazolo[1,5-a]pyrimidine-3-carboxamide], the results for the Ki in assay [1] and in assay [3] were 0.69 nM and 1.3 nM, respectively. For the same compound, the IC50 in assay [2] came to 36 nM.
For the compound `O=C(Nc1cn(Cc2nnn(CCN3CCNCC3)n2)nc1-c1cc(Cl)ccc1OC(F)F)c1cnn2cccnc12` [Example 40, N-[3-[5-chloro-2-(difluoromethoxy)phenyl]-1-[[2-(2-piperazin-1-ylethyl)tetrazol-5-yl]methyl]pyrazol-4-yl]pyrazolo[1,5-a]pyrimidine-3-carboxamide], the Ki in assay [1] is 0.68 nM; in assay [3], 0.78 nM. In assay [2], the IC50 turned out to be 86 nM.
Consider `CSc1ccc(OC(F)F)c(-c2nn(Cc3nnnn3CCN(C)C)cc2NC(=O)c2cnn3cccnc23)c1` [Example 41, N-[3-[2-(difluoromethoxy)-5-methylsulfanyl-phenyl]-1-[[1-[2-(dimethylamino)ethyl]tetrazol-5-yl]methyl]pyrazol-4-yl]pyrazolo[1,5-a]pyrimidine-3-carboxamide], for which the Ki in assay [1] was 0.2 nM; in assay [3] it was 0.32 nM. The IC50 in assay [2] turned out to be 14 nM.
With `CN1CCN(CCn2nnnc2Cn2cc(NC(=O)c3cnn4cccnc34)c(-c3cc(Cl)ccc3OC(F)F)n2)CC1` [Example 42, N-[3-[5-chloro-2-(difluoromethoxy)phenyl]-1-[[1-[2-(4-methylpiperazin-1-yl)ethyl]tetrazol-5-yl]methyl]pyrazol-4-yl]pyrazolo[1,5-a]pyrimidine-3-carboxamide], the Ki in assay [1] is 0.22 nM; in assay [3], 0.33 nM. Also, in assay [2], the IC50 is 16 nM.
For `CN(C)CCn1nnc(Cn2cc(NC(=O)c3cnn4cccnc34)c(-c3cc4c(cc3OC(F)F)NCCO4)n2)n1` [Example 43, N-[3-[6-(difluoromethoxy)-3,4-dihydro-2H-1,4-benzoxazin-7-yl]-1[[2-[2-(dimethylamino)ethyl]tetrazol-5-yl]methyl]pyrazol-4-yl]pyrazolo[1,5-a]pyrimidine-3-carboxamide], the Ki is 0.34 nM in assay [1] and 0.86 nM in assay [3]. Besides, the IC50 in assay [2] turned out to be 36 nM.
Turning to `CN(C)CCn1nnnc1Cn1cc(NC(=O)c2cnn3cccnc23)c(-c2cc3c(cc2OC(F)F)NCCO3)n1` [Example 44, N-[3-[6-(difluoromethoxy)-3,4-dihydro-2H-1,4-benzoxazin-7-yl]-1-[[1-[2-(dimethylamino)ethyl]tetrazol-5-yl]methyl]pyrazol-4-yl]pyrazolo[1,5-a]pyrimidine-3-carboxamide], the Ki in assay [1] is 0.47 nM; in assay [3], 0.71 nM. The IC50 in assay [2] was found to be 25 nM.
On the same counts, the results for `CN1CC(N(C)CCn2nnnc2Cn2cc(NC(=O)c3cnn4cccnc34)c(-c3cc(OC(F)F)ccc3OC(F)F)n2)C1` [Example 45, N-[3-[2,5-bis(difluoromethoxy)phenyl]-1-[[1-[2-[methyl-(1-methylazetidin-3-yl)amino]ethyl]tetrazol-5-yl]methyl]pyrazol-4-yl]pyrazolo[1,5-a]pyrimidine-3-carboxamide] are 0.65 nM, 0.81 nM and 81 nM.
